Reference: article PMC12186697, “HypoxyStat, a small-molecule form of hypoxia therapy that increases oxygen-hemoglobin affinity” (Cell, 2025)

How the values were obtained:
[1] = biological target: T1, hemoglobin (Hb) in human red blood cells (Homo sapiens, UniProt P69905); experiment: Oxy-hemoglobin dissociation curve (Hemox Analyzer), p50; format: biochemical
T1 construct: incubated for at least one hour at 37C with whole blood before Hemox analysis; endogenous in cells; host or cells: human red blood cells / whole blood
Experimental: One of the most extensively studied compounds for sickle cell anemia is GBT-440 (Voxelotor) (Figure 1B).[25] The extent of left-shifting can be assessed by determining the p50 or the partial pressure of oxygen at which half of the total Hb pool is bound to oxygen. We incubated human red blood cells with GBT-440 and observed a ~75% decrease in p50 (from ~28 to ~7 mmHg), consistent with previously reported values (Figure 1D). Experiments were performed using a HemOx analyzer that monitors oxygen saturation via Hb absorbance across a range of dissolved oxygen tensions. Upon further review of the sickle cell anemia literature, we found another compound, hereafter termed HypoxyStat (Figure 1B), which appeared to have a similar p50 as GBT-440.[26] We confirmed that HypoxyStat induced an ~82% decrease in p50 (Figure 1D).
Oxy-hemoglobin dissociation analysis was performed by the UCSF RBC laboratory using the TCS Hemox Analyzer (TCS Medical Products Company, Huntington Valley, PA). Initial pO2 is set to 160 mmHg. Hemoglobin is fully oxygenated under these conditions (HbO% =100). Replacement of air with nitrogen lowers pO2 and is measured by Clark electrode along with the change in the absorbance spectrum of hemoglobin. At a pO2 of 0 mmHg, hemoglobin is fully deoxygenated (HbO% =0). The relation between pO2 and HbO% is plotted, and the pO2 at which HbO% = 50% is defined as P50. The typical sigmoid de-oxygenation curve of normal blood with a P50 of 26–28 mmHg is used as a control for incubation conditions and to ensure proper function of the Hemox analyzer. For left-shifter comparison, the compounds were dissolved in HEPES buffered saline and then incubated for at least one hour at 37C with whole blood before Hemox analysis. A control of whole blood incubated with vehicle is also reported.

[2] = Mouse oral pharmacokinetics (blood and plasma, LC-MS/MS); format: in vivo, C57BL/6 mice
Experimental: We conducted a PK/PD study to determine the optimal dosing strategy for HypoxyStat in a chronic setting. First we administered a single 10 mg/kg oral dose of HypoxyStat to adult C57BL/6 mice and monitored its concentration in blood and plasma over a 10-day period (Figure 3A, left). Next, we administered HypoxyStat at doses of 20, 60, 200, and 600 mg/kg via oral gavage three times per week for 12 days. […] Based on blood levels of HypoxyStat and Hb measured on day 12, we estimated Hb occupancy to be 29.3% at 200 mg/kg and 41.4% at 600 mg/kg (Figure S1).[27]
Mouse plasma and whole blood samples were processed as outlined below. An equal volume of 3% aqueous formic acid in water was added to whole blood and plasma samples which were then vortexed at 600 rpm for 60 minutes at room temperature. Internal standard solution (acetonitrile containing 200 nM chrysin) was then added to the samples. They were then vortexed and centrifuged for 5 minutes at 4100 rpm and 4°C. Diluted extracts were injected into a Sciex 5500 LC-MS/MS system operated in positive mode for analysis. A Waters Acquity BEH C18 (50 x 2 mm, […]) UPLC column was used with Mobile Phases A (water:acetonitrile:formic acid [95:5:0.1, v:v:v]) and B (methanol:acetonitrile:formic acid [50:50:0.1, v:v:v]) to separate analytes. Multiple reaction monitoring transitions of 368/230 and 255/153 were used for HypoxyStat and chrysin, respectively.

[3] = tested on: hypoxia transcriptional response (HIF); experiment: Hypoxia biomarkers in mice (plasma Epo, hematocrit, blood glucose, hypoxia-induced brain transcripts); format: in vivo, mouse
Experimental: Plasma Epo measurements were performed with R&D Systems Epo Elisa Kit (MEP00B) according to manufacturer directions. Briefly, whole blood was collected with anticoagulant before centrifugation within 30 minutes of collection and stored at −80C until day of analysis. On the day of Epo assay, samples were thawed and diluted 2-fold and incubated in the assay plate for two hours. Each well was washed five times before the addition of Epo Conjugate followed by a two-hour incubation. Each well was washed five times before adding Substrate Solution to develop for 30 minutes before addition of Stop Solution. The optical density of each well was determined at 450nm and correction wavelength of 540/570.
(§1) Hematocrit was determined with an iStat VetScan 1 with Zoetis Chem 8+ cartridges. Blood glucose measurements were performed using OneTouch UltraPlus glucometer. Whole blood chemistry measurements were performed on a VetScan HM5.
Half of the hindbrain was collected at necropsy and immediately flash frozen. For RNA extraction, a stainless-steel bead (Qiagen) and 1 mL TRIzol™ Reagent (Thermo Fisher Scientific) were added to the frozen samples, which were rapidly lysed using a tissue lyser (Qiagen) for five 1-minute cycles of 30 Hz frequency. Subsequent steps for RNA isolation were identical as previously described.[9] Reverse transcription was performed using the QuantiTect Reverse Transcription Kit (Qiagen) instructions. Briefly, gDNA was wiped out from samples containing 1 μg RNA. gDNA-free RNA samples were reverse transcribed following Qiagen’s instructions. […] For each set of triplicates, an average CT value was obtained, and the difference in average CT between the target gene and β-actin was calculated (ΔCT). Next, the difference in ΔCT value between each sample and the average of the normoxia samples was calculated (ΔΔCT). Relative expression of each gene was determined by calculating 2^−ΔΔCT.

[4] = Safety studies in mice at optimized dose; format: in vivo; conditions: optimized dose (400 mg/kg daily)
Experimental: Additionally, we used the Reaction Bio InVEST panel to test 25+ potential off-targets that have been identified by a consortium of pharmaceutical companies as high-yield candidates.
as §1

T1 sequence (P69905 2-142 limits assumed): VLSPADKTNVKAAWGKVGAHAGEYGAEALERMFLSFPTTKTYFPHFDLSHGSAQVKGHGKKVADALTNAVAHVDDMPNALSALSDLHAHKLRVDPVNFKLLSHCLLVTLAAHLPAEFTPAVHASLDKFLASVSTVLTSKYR
T1 sequence (P68871 2-147 partner limits assumed): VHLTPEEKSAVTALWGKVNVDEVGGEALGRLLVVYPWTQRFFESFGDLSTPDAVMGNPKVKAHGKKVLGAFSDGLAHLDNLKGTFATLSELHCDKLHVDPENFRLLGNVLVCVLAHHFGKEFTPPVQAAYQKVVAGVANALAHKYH

## O=Cc1ccccc1C(=O)N1CCCC[C@H]1COc1cccc(O)c1C=O [HypoxyStat]
[1]; human red blood cells incubated 1 h with 10 mM compound, vehicle ~28 mmHg
  p50: 5.6 mmHg
[1]; human red blood cells incubated with compound, vs vehicle
  decrease in p50: ~ 82%
[2]; 20, 60, 200 and 600 mg/kg oral gavage three times per week for 12 days
  concentration within red blood cells: dose-dependent increase
[2]; C57BL/6, in vivo, oral, 10 mg/kg, Figure 2A, mouse
  Cmax: 1590 nM
[2]; mouse, in vivo, 10 mg/kg oral gavage, C57BL/6 mice, read-out: effective half-life (Mouse PO half-life) (converted)
  half-life: 121 h
[2]; mouse, whole blood and plasma, 10 mg/kg oral gavage, C57BL/6 mice, 3 days post dosing
  blood plasma ratio at 3 days: 396
[3]; 400 mg/kg daily, 48 h, compared with inhaled hypoxia (11% O2)
  circulating Epo and 5 hypoxia-induced transcripts in hindbrain: induced to an equivalent or greater degree
[3]; oral gavage 3 times per week for 12 days, up to 600 mg/kg
  Epo and hematocrit with increasing dose: substantial increases in both Epo and hematocrit
[4]
  classical safety parameters (body weight, organ weights, complete blood count, clinical chemistries): not adversely affected
